Measurements published in patent US20230303623A1, “PEPTIDES AND METHODS OF USE” (REALTA LIFE SCIENCES, INC., priority 2020, published 2023).
Entries after “also recorded” stand apart in the source; their conditions may differ.

Tested on: classical complement pathway activation (C1q with C1r and C1s from A-498 cells)
Experiment: Classical complement activation by A-498 cell supernatant, C4a ELISA
Format: biochemical, human
Settings: increasing doses 0-8 mg/ml; listed as RLS-0122
Description: Supernatants from A-498 cells were added to purified human C1q pre-incubated with increasing doses of RLS-0122 or RLS-0174 and loaded onto an IgG coated plate. Samples were then incubated for 1 hour at 37° C. After incubation samples were washed 3 times with PBS-T before the addition of purified human C4 (4 ug/ml) and incubated for 1.5 hours at 37° C. The supernatants were collected for analysis on Quidel's MicroVue Complement C4a ELISA.
Effective clear-cell renal cell carcinoma (ccRCC) therapies are needed, particularly at the metastatic stage when surgery is ineffective. Complement is a key factor in tissue inflammation, favoring cancer progression through the production of complement component 5a (C5a) (Roumenina et al., Cancer Immunol Res; 7(7) July 2019). Using data mining techniques, ccRCC has been identified as a cancer type expressing concomitantly high expression of the components that are part of the classical complement pathway. High densities of cells producing classical complement pathway components C1q and C4 and the presence of C4 activation fragment deposits in primary tumors are often correlated with poor prognosis. […] The inventors tested the ability of RLS-0122 to block complement activation in human kidney carcinoma cell line A498 system in vitro as assessed by the reduction in C4a levels. […]

In the case of “IAdLILEP(Sar)CCQERAA (IALILEPXCCQERAA; D-Leu; sarcosine; MOD_RES (3)..(3) D-amino acid; MOD_RES (8)..(8) Sarcosine) [PA-0122]”, the “C4a generation, in words” value is reported as “dose-dependently reduced the level of C4a generation; also recorded: can inhibit classical complement pathway activation”.
